Reference: PubChem BioAssay AID1259407 (Chemical Carcinogenesis Research Information System (CCRIS), 2018)
Active and inactive are the calls of the source. How the calls were made is not given here.

Tested on: CCRIS mutagenicity, Ames/micronucleus/aberration tests
Assay: CCRIS mutagenicity studies
[1] = Test System: AMES SALMONELLA TYPHIMURIUM, Strain/Indicator: TA98, Metabolic Activation: NONE, Method: STANDARD PLATE
[2] = Test System: AMES SALMONELLA TYPHIMURIUM, Strain/Indicator: TA98, Metabolic Activation: RAT, LIVER, S-9, AROCLOR 1254, Method: STANDARD PLATE
[3] = Test System: AMES SALMONELLA TYPHIMURIUM, Strain/Indicator: TA100, Metabolic Activation: NONE, Method: STANDARD PLATE
[4] = Test System: AMES SALMONELLA TYPHIMURIUM, Strain/Indicator: TA100, Metabolic Activation: RAT, LIVER, S-9, AROCLOR 1254, Method: STANDARD PLATE
[5] = Test System: AMES SALMONELLA TYPHIMURIUM, Strain/Indicator: TA102, Metabolic Activation: NONE, Method: STANDARD PLATE
[6] = Test System: AMES SALMONELLA TYPHIMURIUM, Strain/Indicator: TA1535, Metabolic Activation: NONE, Method: STANDARD PLATE
[7] = Test System: AMES SALMONELLA TYPHIMURIUM, Strain/Indicator: TA1537, Metabolic Activation: NONE, Method: STANDARD PLATE
[8] = Test System: AMES SALMONELLA TYPHIMURIUM, Strain/Indicator: TA98, Metabolic Activation: NONE, Method: PREINCUBATION
[9] = Test System: AMES SALMONELLA TYPHIMURIUM, Strain/Indicator: TA100, Metabolic Activation: NONE, Method: PREINCUBATION

With `CCN(CC)C(=O)Nc1ccc(OCC(O)CNC(C)(C)C)c(C(C)=O)c1` (stereo unspecified) the mutagenic call (Test System: AMES SALMONELLA TYPHIMURIUM, Strain/Indicator: TA97, Metabolic Activation: NONE, Method: STANDARD PLATE) was “inactive; negative”, the mutagenic call [1] was “inactive; negative” and the mutagenic call [2] was “inactive; negative”. For the same compound, the mutagenic call (Test System: AMES SALMONELLA TYPHIMURIUM, Strain/Indicator: TA98, Metabolic Activation: RAT, S-9, AROCLOR 1254, Method: STANDARD PLATE) was “inactive; negative”, the mutagenic call [3] was “inactive; negative” and the mutagenic call [4] was “inactive; negative”. The mutagenic call (Test System: AMES SALMONELLA TYPHIMURIUM, Strain/Indicator: TA100, Metabolic Activation: RAT, S-9, AROCLOR 1254, Method: STANDARD PLATE) was “inactive; negative”, the mutagenic call [5] was “inactive; negative” and the mutagenic call [6] was “inactive; negative”. For the same compound, the mutagenic call (Test System: AMES SALMONELLA TYPHIMURIUM, Strain/Indicator: TA1535, Metabolic Activation: RAT, S-9, AROCLOR 1254, Method: STANDARD PLATE) was “inactive; negative”, the mutagenic call [7] was “inactive; negative” and the mutagenic call (Test System: AMES SALMONELLA TYPHIMURIUM, Strain/Indicator: TA1537, Metabolic Activation: RAT, S-9, AROCLOR 1254, Method: STANDARD PLATE) was “inactive; negative”. The mutagenic call (Test System: AMES SALMONELLA TYPHIMURIUM, Strain/Indicator: TA1538, Metabolic Activation: NONE, Method: STANDARD PLATE) was “inactive; negative”, the mutagenic call (Test System: AMES SALMONELLA TYPHIMURIUM, Strain/Indicator: TA1538, Metabolic Activation: RAT, S-9, AROCLOR 1254, Method: STANDARD PLATE) was “inactive; negative” and the mutagenic call (Test System: E. COLI, Strain/Indicator: WP2, Metabolic Activation: NONE, Method: STANDARD PLATE) was “inactive; negative”. For the same compound, the mutagenic call (Test System: E. COLI, Strain/Indicator: WP2, Metabolic Activation: RAT, S-9, AROCLOR 1254, Method: STANDARD PLATE) was “inactive; negative”, the mutagenic call (Test System: E. COLI, Strain/Indicator: WP2 UVRA, Metabolic Activation: NONE, Method: STANDARD PLATE) was “inactive; negative” and the mutagenic call (Test System: E. COLI, Strain/Indicator: WP2 UVRA, Metabolic Activation: RAT, S-9, AROCLOR 1254, Method: STANDARD PLATE) was “inactive; negative”.

With `C[C@]12CC[C@@H](OC(=O)/C=C/c3cccc(N(CCCl)CCCl)c3)C[C@@H]1CC[C@@H]1[C@@H]2CC[C@]2(C)NC(=O)CC[C@@H]12` the mutagenic call [1] was “inactive; negative”, the mutagenic call [2] was “inactive; negative” and the mutagenic call [3] was “inactive; negative”. The mutagenic call [4] was “inactive; negative”, the mutagenic call [6] was “active; positive” and the mutagenic call (Test System: AMES SALMONELLA TYPHIMURIUM, Strain/Indicator: TA1535, Metabolic Activation: RAT, LIVER, S-9, AROCLOR 1254, Method: STANDARD PLATE) was “active; positive”. The mutagenic call [7] was “inactive; negative” and the mutagenic call (Test System: AMES SALMONELLA TYPHIMURIUM, Strain/Indicator: TA1537, Metabolic Activation: RAT, LIVER, S-9, AROCLOR 1254, Method: STANDARD PLATE) was “inactive; negative”.

With `CC(C)CNCC(C)C` the mutagenic call (Test System: AMES SALMONELLA TYPHIMURIUM, Strain/Indicator: TA98, Metabolic Activation: HAMSTER, LIVER, S-9, AROCLOR 1254 (10%), Method: PREINCUBATION) was “inactive; negative”, the mutagenic call [8] was “inactive; negative” and the mutagenic call (Test System: AMES SALMONELLA TYPHIMURIUM, Strain/Indicator: TA98, Metabolic Activation: RAT, LIVER, S-9, AROCLOR 1254 (10%), Method: PREINCUBATION) was “inactive; negative”. For the same compound, the mutagenic call (Test System: AMES SALMONELLA TYPHIMURIUM, Strain/Indicator: TA100, Metabolic Activation: HAMSTER, LIVER, S-9, AROCLOR 1254 (10%), Method: PREINCUBATION) was “inactive; negative”, the mutagenic call [9] was “inactive; negative” and the mutagenic call (Test System: AMES SALMONELLA TYPHIMURIUM, Strain/Indicator: TA100, Metabolic Activation: RAT, LIVER, S-9, AROCLOR 1254 (10%), Method: PREINCUBATION) was “inactive; negative”. The mutagenic call (Test System: AMES SALMONELLA TYPHIMURIUM, Strain/Indicator: TA1535, Metabolic Activation: HAMSTER, LIVER, S-9, AROCLOR 1254 (10%), Method: PREINCUBATION) was “inactive; negative”, the mutagenic call (Test System: AMES SALMONELLA TYPHIMURIUM, Strain/Indicator: TA1535, Metabolic Activation: NONE, Method: PREINCUBATION) was “inactive; negative” and the mutagenic call (Test System: AMES SALMONELLA TYPHIMURIUM, Strain/Indicator: TA1535, Metabolic Activation: RAT, LIVER, S-9, AROCLOR 1254 (10%), Method: PREINCUBATION) was “inactive; negative”. The mutagenic call (Test System: AMES SALMONELLA TYPHIMURIUM, Strain/Indicator: TA1537, Metabolic Activation: HAMSTER, LIVER, S-9, AROCLOR 1254 (10%), Method: PREINCUBATION) was “inactive; negative”, the mutagenic call (Test System: AMES SALMONELLA TYPHIMURIUM, Strain/Indicator: TA1537, Metabolic Activation: NONE, Method: PREINCUBATION) was “inactive; negative” and the mutagenic call (Test System: AMES SALMONELLA TYPHIMURIUM, Strain/Indicator: TA1537, Metabolic Activation: RAT, LIVER, S-9, AROCLOR 1254 (10%), Method: PREINCUBATION) was “inactive; negative”.

In the case of `CC1=CCC(=O)O1`, the mutagenic call [1] is reported as “inactive; negative”, the mutagenic call [2] is reported as “inactive; negative” and the mutagenic call [3] is reported as “inactive; negative”. For the same compound, the mutagenic call [4] was “inactive; negative”.

In the case of `CCOP(=O)=O.CCOP(=O)=O.CCOP(=O)=O.[Al+3]`, the mutagenic call (End Point: IN VIVO MICRONUCLEUS, Test System: BONE MARROW POLYCHROMATIC ERYTHROCYTES, Species: MOUSE, Strain/Sex: SWISS/MALE, FEMALE, Route: IP 2X IN AQUEOUS SUSPENSION WITHIN 24 HR) is reported as “active; positive”.

With `CN1CCN(C)CC1` the mutagenic call [8] was “inactive; negative”, the mutagenic call (Test System: AMES SALMONELLA TYPHIMURIUM, Strain/Indicator: TA98, Metabolic Activation: RAT, LIVER, S-9, PCB, Method: PREINCUBATION) was “inactive; negative” and the mutagenic call [9] was “inactive; negative”. The mutagenic call (Test System: AMES SALMONELLA TYPHIMURIUM, Strain/Indicator: TA100, Metabolic Activation: RAT, LIVER, S-9, PCB, Method: PREINCUBATION) was “inactive; negative”.

In the case of `CCCCCN(CCCCO)N=O`, the mutagenic call (Test System: AMES SALMONELLA TYPHIMURIUM, Strain/Indicator: TA1535, Metabolic Activation: RAT, LIVER, S-9, KANECHLOR 500 OR PHENOBARBITAL, Method: LIQUID SUSPENSION) is reported as “active; positive”.

In the case of `Nc1c(Cl)cc([N+](=O)[O-])cc1Cl`, the mutagenic call (Test System: AMES SALMONELLA TYPHIMURIUM, Strain/Indicator: TA98, Metabolic Activation: HAMSTER, LIVER, S-9, AROCLOR 1254 (30%), Method: PREINCUBATION) is reported as “active; positive”, the mutagenic call [8] is reported as “active; positive” and the mutagenic call (Test System: AMES SALMONELLA TYPHIMURIUM, Strain/Indicator: TA98, Metabolic Activation: RAT, LIVER, S-9, AROCLOR 1254 (30%), Method: PREINCUBATION) is reported as “active; positive”. For the same compound, the mutagenic call (Test System: AMES SALMONELLA TYPHIMURIUM, Strain/Indicator: TA100, Metabolic Activation: HAMSTER, LIVER, S-9, AROCLOR 1254 (30%), Method: PREINCUBATION) was “inactive; negative”, the mutagenic call [9] was “inactive; negative” and the mutagenic call (Test System: AMES SALMONELLA TYPHIMURIUM, Strain/Indicator: TA100, Metabolic Activation: RAT, LIVER, S-9, AROCLOR 1254 (30%), Method: PREINCUBATION) was “inactive; negative”. The mutagenic call (Test System: AMES SALMONELLA TYPHIMURIUM, Strain/Indicator: TA100, Metabolic Activation: RAT, LIVER, S-9, KANECHLOR 500, Method: PREINCUBATION) was “inactive; negative”.

With `CN1CCN(c2ccc3nc(CCCCCCc4ccc5nc(-c6ccc(N(CCCl)CCCl)cc6)[nH]c5c4)[nH]c3c2)CC1` the mutagenic call [1] was “inactive; negative”, the mutagenic call [3] was “inactive; negative” and the mutagenic call [5] was “inactive; negative”.

In the case of `Brc1c2ccccc2cc2c1ccc1ccccc12`, the mutagenic call (Test System: AMES SALMONELLA TYPHIMURIUM, Strain/Indicator: TA100, Metabolic Activation: RAT, LIVER, S-9, PCB, Method: STANDARD PLATE) is reported as “active; positive”.

`O=C(O[C@@H]1Cc2c(O)cc(O)cc2O[C@H]1c1cc(O)c(O)c(O)c1)c1cc(O)c(O)c(O)c1` was tested, and the mutagenic call (Test System: Ames Salmonella typhimurium, Strain/Indicator: TA102, Metabolic Activation: None, Method: Preincubation) was “inactive; negative” and the mutagenic call (Test System: Ames Salmonella typhimurium, Strain/Indicator: TA102, Metabolic Activation: Rat, Liver, S-9, Aroclor 1254 in 0.154 M KCl, Method: Preincubation) was “inactive; negative”.
